According to BigSolDB 2.1:

O=C([O-])c1ccccc1.[K+]
solubility (mole fraction)
Conditions	in DMAc	in DMF	in ethanol	in formamide	in isobutanol	in isopropanol	in methanol	in n-butanol	in n-pentanol	in n-propanol
282.95 K	0.000243	0.000325	0.00133	0.0439	0.000248	0.000225	0.0144	0.000586	0.000517	0.000735
287.95 K	0.000263	0.000372	0.00143	0.0444	0.000284	0.000256	0.0148	0.000617	0.000604	0.000781
293.25 K	0.000287	0.000426	0.00157	0.045	0.000325	0.000286	0.0153	0.000646	0.000693	0.000841
298.25 K	0.000309	0.000502	0.00168	0.0457	0.000355	0.000314	0.0158	0.000673	0.000776	0.000892
303.35 K	0.000333	0.000587	0.00181	0.0465	0.000402	0.000354	0.0162	0.000731	0.000865	0.000961
308.25 K	0.000367	0.000665	0.00192	0.0473	0.000457	0.000409	0.0167	0.000795	0.000929	0.00104
312.85 K	0.000392	0.000722	0.0021	0.0481	0.000517	0.000459	0.0172	0.000898	0.000986	0.00115
317.95 K	0.000425	0.000778	0.00244	0.0489	0.000572	0.000511	0.0181	0.000983	0.00105	0.00126
